According to patent US12162890B2 (Novartis AG, priority 2015, dated 2024):

Target: HEK293 cells with stable expression of the GRIN1 gene and tetracycline-inducible expression of the GRIN2B gene (NMDA receptor, NR2B) (Homo sapiens, UniProt Q13224)
Assay: Fluo-8 Ca2+ flux assay: reversal of Ro 25-6981-mediated suppression of the Ca2+ response to co-agonist (glutamate/glycine); also: test concentration or dose not given here
Assay type: cell-based
Conditions: reversal of the Ro 25-6981 suppression of the Ca2+ response to co-agonist (glutamate/glycine)

Chain of HEK293 cells with stable expression of the GRIN1 gene and tetracycline-inducible expression of the GRIN2B gene (NMDA receptor, NR2B) (Q13224 27-1484, other chains not shown): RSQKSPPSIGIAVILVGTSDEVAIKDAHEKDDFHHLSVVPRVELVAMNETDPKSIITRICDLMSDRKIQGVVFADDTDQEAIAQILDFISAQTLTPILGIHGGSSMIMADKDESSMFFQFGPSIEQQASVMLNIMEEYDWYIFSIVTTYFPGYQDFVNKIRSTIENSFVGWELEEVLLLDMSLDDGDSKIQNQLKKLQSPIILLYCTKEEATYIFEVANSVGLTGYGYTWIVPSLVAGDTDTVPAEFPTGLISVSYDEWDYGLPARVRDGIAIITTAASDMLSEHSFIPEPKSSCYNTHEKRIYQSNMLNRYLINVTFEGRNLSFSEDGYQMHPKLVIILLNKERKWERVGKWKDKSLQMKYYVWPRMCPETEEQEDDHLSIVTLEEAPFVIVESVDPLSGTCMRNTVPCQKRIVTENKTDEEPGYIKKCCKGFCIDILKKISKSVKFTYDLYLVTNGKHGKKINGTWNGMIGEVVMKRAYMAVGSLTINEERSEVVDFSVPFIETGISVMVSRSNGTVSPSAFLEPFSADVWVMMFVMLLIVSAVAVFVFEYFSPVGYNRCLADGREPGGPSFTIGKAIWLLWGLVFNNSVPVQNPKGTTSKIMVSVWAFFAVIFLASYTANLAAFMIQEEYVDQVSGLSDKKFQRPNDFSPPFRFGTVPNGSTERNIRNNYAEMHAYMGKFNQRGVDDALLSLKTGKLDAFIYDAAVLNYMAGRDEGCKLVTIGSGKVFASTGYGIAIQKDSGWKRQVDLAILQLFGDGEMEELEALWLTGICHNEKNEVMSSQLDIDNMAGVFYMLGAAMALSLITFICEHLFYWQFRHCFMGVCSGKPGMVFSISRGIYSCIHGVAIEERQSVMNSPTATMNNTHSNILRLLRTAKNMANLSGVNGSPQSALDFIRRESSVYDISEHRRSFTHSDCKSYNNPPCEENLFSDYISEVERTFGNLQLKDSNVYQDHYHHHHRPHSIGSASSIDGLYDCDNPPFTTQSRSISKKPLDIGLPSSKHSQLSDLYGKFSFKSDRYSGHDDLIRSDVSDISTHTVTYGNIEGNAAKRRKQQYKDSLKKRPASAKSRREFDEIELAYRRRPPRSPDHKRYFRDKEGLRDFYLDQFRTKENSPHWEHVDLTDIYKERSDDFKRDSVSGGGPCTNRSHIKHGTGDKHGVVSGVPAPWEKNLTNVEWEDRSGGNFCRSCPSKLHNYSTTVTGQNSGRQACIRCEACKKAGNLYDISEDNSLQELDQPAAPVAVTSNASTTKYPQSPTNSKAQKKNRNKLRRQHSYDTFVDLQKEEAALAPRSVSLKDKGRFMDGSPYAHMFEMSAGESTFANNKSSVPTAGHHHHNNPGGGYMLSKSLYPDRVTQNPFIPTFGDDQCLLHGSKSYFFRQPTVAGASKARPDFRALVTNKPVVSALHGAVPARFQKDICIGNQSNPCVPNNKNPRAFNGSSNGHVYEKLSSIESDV

Row | Structure (SMILES) | Response Recovered (%)
1 | CCC1(F)CN(C(=O)Cn2ccc3scc(-c4cnc(C#N)c(Cl)c4)c3c2=O)C1 [Example 137, 3-chloro-5-(5-(2-(3-ethyl-3-fluoroazetidin-1-yl)-2-oxoethyl)-4-oxo-4,5-dihydrothieno[3,2-c]pyridin-3-yl)picolinonitrile] | 22
2 | Cc1cc(-c2ccn3ccn(CC(=O)N4CC(F)(CF)C4)c(=O)c23)cnc1Cl [Example 409, 8-(6-chloro-5-methylpyridin-3-yl)-2-(2-(3-fluoro-3-(fluoromethyl)azetidin-1-yl)-2-oxoethyl)pyrrolo[1,2-a]pyrazin-1(2H)-one] | 33
3 | N#Cc1cn(CC(=O)N2CCCC2)c(=O)c2c(-c3ccc(F)c(C(F)(F)F)c3)csc12 [Example 100, 3-(4-fluoro-3-(trifluoromethyl)phenyl)-4-oxo-5-(2-oxo-2-(pyrrolidin-1-yl)ethyl)-4,5-dihydrothieno[3,2-c]pyridine-7-carbonitrile] | 34
4 | O=C(Cn1ccc2scc(-c3ccc(Cl)c(Cl)c3)c2c1=O)N1CC(F)C1 [Example 33, 3-(3,4-dichlorophenyl)-5-(2-(3-fluoroazetidin-1-yl)-2-oxoethyl)thieno[3,2-c]pyridin-4(5H)-one] | 54
5 | COC1(C)CN(C(=O)Cn2ccc3scc(-c4ccc(Cl)c(Cl)c4)c3c2=O)C1 [Example 63, 3-(3,4-dichlorophenyl)-5-(2-(3-methoxy-3-methylazetidin-1-yl)-2-oxoethyl)thieno[3,2-c]pyridin-4(5H)-one] | 16
6 | O=C(Cn1cc(N2CCCC2)c2scc(-c3ccc(F)c(C(F)(F)F)c3)c2c1=O)N1CCCC1 [Example 114, 3-(4-fluoro-3-(trifluoromethyl)phenyl)-5-(2-oxo-2-(pyrrolidin-1-yl)ethyl)-7-(pyrrolidin-1-yl)thieno[3,2-c]pyridin-4(5H)-one] | 15
7 | O=C(Cn1ccc2scc(-c3ccc(F)c(C(F)(F)F)c3)c2c1=O)N1CCC(F)C1 (stereo not shown) [Example 11, 3-(4-fluoro-3-(trifluoromethyl)phenyl)-5-(2-(3-fluoropyrrolidin-1-yl)-2-oxoethyl)thieno[3,2-c]pyridin-4(5H)-one] | 99
8 | O=C(Cn1ccc2[nH]cc(-c3ccc(Cl)c(C(F)(F)F)c3)c2c1=O)N1CCCC1 [Example 198, 3-(4-chloro-3-(trifluoromethyl)phenyl)-5-(2-oxo-2-(pyrrolidin-1-yl)ethyl)-1H-pyrrolo[3,2-c]pyridin-4(5H)-one] | 104
9 | Cn1cc(-n2cc(-c3ccc(Cl)c(Cl)c3)c3c(=O)n(CC(=O)N4CC(C)(F)C4)ccc32)cn1 [Example 284, 3-(3,4-dichlorophenyl)-5-(2-(3-fluoro-3-methylazetidin-1-yl)-2-oxoethyl)-1-(1-methyl-1H-pyrazol-4-yl)-1H-pyrrolo[3,2-c]pyridin-4(5H)-one] | 5.2
10 | O=C(Cn1ccn2c(C3CC3)nc(-c3ccc(Cl)c(Cl)c3)c2c1=O)N1CC(F)(CF)C1 [Example 440, 3-cyclopropyl-1-(3,4-dichlorophenyl)-7-(2-(3-fluoro-3-(fluoromethyl)azetidin-1-yl)-2-oxoethyl)imidazo[1,5-a]pyrazin-8(7H)-one] | 110
11 | O=C(Cn1cnc2[nH]cc(-c3ccc(Cl)c(C(F)(F)F)c3)c2c1=O)N1CC(F)(F)C1 [Example 166, 5-(4-chloro-3-(trifluoromethyl)phenyl)-3-(2-(3,3-difluoroazetidin-1-yl)-2-oxoethyl)-3H-pyrrolo[2,3-d]pyrimidin-4(7H)-one] | 65
12 | Cc1cc(-c2nc(C3CC3)n3ccn(CC(=O)N4CC(C)(F)C4)c(=O)c23)ccc1Cl [Example 443, 1-(4-chloro-3-methylphenyl)-3-cyclopropyl-7-(2-(3-fluoro-3-methylazetidin-1-yl)-2-oxoethyl)imidazo[1,5-a]pyrazin-8(7H)-one] | 120
13 | CC1(NC(=O)OC(C)(C)C)CN(C(=O)Cn2ccc3scc(-c4ccc(F)c(C(F)(F)F)c4)c3c2=O)C1 [Example 77, tert-butyl (1-(2-(3-(4-fluoro-3-(trifluoromethyl)phen-yl)-4-oxothieno[3,2-c]pyridin-5(4H)-yl)acetyl)-3-methylazetidin-3-yl)carbamate] | −6.4
14 | COCn1cc(-c2ccc(F)c(C(F)(F)F)c2)c2c(=O)n(CC(=O)N3CC(F)C(F)C3)ccc21 (stereo not shown) [Example 242, 5-(2-(3,4-difluoropyrrolidin-1-yl)-2-oxoethyl)-3-(4-fluoro-3-(trifluoromethyl)phenyl)-1-(methoxymethyl)-1H-pyrrolo[3,2-c]pyridin-4(5H)-one] | 110
15 | O=C(Cn1cnc2snc(-c3ccc(Cl)cc3)c2c1=O)N1CCCC1 [Example 380, 3-(4-chlorophenyl)-5-(2-oxo-2-(pyrrolidin-1-yl)ethyl)isothiazolo[5,4-d]pyrimidin-4(5H)-one] | 6
16 | O=C(Cn1cc(CN2CCCC2)c2scc(-c3ccc(Cl)c(Cl)c3)c2c1=O)N1CCC(F)C1 (stereo not shown) [Example 121, 3-(3,4-dichlorophenyl)-5-(2-(3-fluoropyrrolidin-1-yl)-2-oxoethyl)-7-(pyrrolidin-1-ylmethyl)thieno[3,2-c]pyridin-4(5H)-one] | 59
17 | CCC1(F)CN(C(=O)Cn2ccc3c(c(-c4ccc(F)c(Cl)c4)cn3C3CC3)c2=O)C1 [Example 237, 3-(3-chloro-4-fluorophenyl)-1-cyclopropyl-5-(2-(3-ethyl-3-fluoroazetidin-1-yl)-2-oxoethyl)-1H-pyrrolo[3,2-c]pyridin-4(5H)-one] | 79
18 | CC(C)(O)c1cn(CC(=O)N2CCC(F)C2)c(=O)c2c(-c3ccc(F)c(C(F)(F)F)c3)csc12 (stereo not shown) [Example 133, 3-(4-fluoro-3-(trifluoromethyl)phenyl)-5-(2-(3-fluoropyrrolidin-1-yl)-2-oxoethyl)-7-(2-hydroxypropan-2-yl)thieno[3,2-c]pyridin-4(5H)-one] | 9.9
19 | O=C(Cn1ccc2[nH]cc(-c3cnc(Cl)c(Cl)c3)c2c1=O)N1CC(F)C(F)C1 (stereo not shown) [Example 210, 3-(5,6-dichloropyridin-3-yl)-5-(2-(3,4-difluoropyrrolidin-1-yl)-2-oxoethyl)-1H-pyrrolo[3,2-c]pyridin-4(5H)-one] | 26

Further lines, results first:

Row | Response Recovered (%) | Structure (SMILES)
20 | 58 | CC1(F)CN(C(=O)Cn2ccn3ccc(-c4cnc(Cl)c(Cl)c4)c3c2=O)C1 [Example 404, 8-(5,6-dichloropyridin-3-yl)-2-(2-(3-fluoro-3-methylazetidin-1-yl)-2-oxoethyl)pyrrolo[1,2-a]pyrazin-1(2H)-one]
21 | 139 | O=C(Cn1ccc2scc(-c3ccc(Cl)c(C(F)(F)F)c3)c2c1=O)N1CC(F)(F)C1 [Example 5, 3-(4-chloro-3-(trifluoromethyl)phenyl)-5-(2-(3,3-difluoroazetidin-1-yl)-2-oxoethyl)thieno[3,2-c]pyridin-4(5H)-one]
22 | 14 | CN(C)CCn1cc(-c2ccc(F)c(Cl)c2)c2c(=O)n(CC(=O)N3CCC(F)C3)ccc21 (stereo not shown) [Example 245, 3-(3-chloro-4-fluorophenyl)-1-(2-(dimethylamino)ethyl)-5-(2-(3-fluoropyrrolidin-1-yl)-2-oxoethyl)-1H-pyrrolo[3,2-c]pyridin-4(5H)-one]
23 | 18 | O=C(Cn1cnc2[nH]cc(-c3cnc(Cl)c(C(F)(F)F)c3)c2c1=O)N1CC(F)(F)C1 [Example 182, 5-(6-chloro-5-(trifluoromethyl)pyridin-3-yl)-3-(2-(3,3-difluoroazetidin-1-yl)-2-oxoethyl)-3H-pyrrolo[2,3-d]pyrimidin-4(7H)-one]
24 | 18 | O=C(Cn1cnc2csc(-c3ccc(Cl)cc3)c2c1=O)N1CCCC1 [Example 345, 5-(4-chlorophenyl)-3-(2-oxo-2-(pyrrolidin-1-yl)ethyl)thieno[3,4-d]pyrimidin-4(3H)-one]
25 | 20 | CCC1(F)CN(C(=O)Cn2ccc3scc(-c4cnc(F)c(C)c4)c3c2=O)C1 [Example 88, 5-(2-(3-ethyl-3-fluoroazetidin-1-yl)-2-oxoethyl)-3-(6-fluoro-5-methylpyridin-3-yl)thieno[3,2-c]pyridin-4(5H)-one]
26 | 34 | COCn1cc(-c2ccc(F)c(Cl)c2)c2c(=O)n(CC(=O)N3CCC(F)C3)ccc21 (stereo not shown) [Example 246, 3-(3-chloro-4-fluorophenyl)-5-(2-(3-fluoropyrrolidin-1-yl)-2-oxoethyl)-1-(methoxymethyl)-1H-pyrrolo[3,2-c]pyridin-4(5H)-one]
27 | 46 | CC1(F)CN(C(=O)Cn2ccn3c(C4CC4)nc(-c4cnc(F)c(Cl)c4)c3c2=O)C1 [Example 441, 1-(5-chloro-6-fluoropyridin-3-yl)-3-cyclopropyl-7-(2-(3-fluoro-3-methylazetidin-1-yl)-2-oxoethyl)imidazo[1,5-a]pyrazin-8(7H)-one]
28 | 8 | O=C(Cn1cnc2[nH]nc(-c3ccc(Cl)c(C(F)(F)F)c3)c2c1=O)N1CCCC1 [Example 317, 3-(4-chloro-3-(trifluoromethyl)phenyl)-5-(2-oxo-2-(pyrrolidin-1-yl)ethyl)-1H-pyrazolo[3,4-d]pyrimidin-4(5H)-one]
29 | 130 | CC1(F)CN(C(=O)Cn2ccc3c(c(-c4ccc(Cl)c(Cl)c4)cn3C3CC3)c2=O)C1 [Example 288, 1-cyclopropyl-3-(3,4-dichlorophenyl)-5-(2-(3-fluoro-3-methylazetidin-1-yl)-2-oxoethyl)-1H-pyrrolo[3,2-c]pyridin-4(5H)one]
30 | 55 | Cn1cc(-c2ccc(Cl)c(C(F)(F)F)c2)c2c(=O)n(CC(=O)N3CC(F)(F)C3)cnc21 [Example 168, 5-(4-chloro-3-(trifluoromethyl)phenyl)-3-(2-(3,3-difluoroazetidin-1-yl)-2-oxoethyl)-7-methyl-3H-pyrrolo[2,3-d]pyrimidin-4(7H)-one]
31 | 3 | O=C(Cn1cnc2ccn(-c3ccc(Cl)cc3)c2c1=O)N1CCCC1 [Example 376, 5-(4-chlorophenyl)-3-(2-oxo-2-(pyrrolidin-1-yl)ethyl)-3H-pyrrolo[3,2-d]pyrimidin-4(5H)-one]
